Test results reported in patent US20250275959A1, “COMPOUNDS AND METHODS OF THEIR USE” (LEXICON PHARMACEUTICALS, INC., priority 2024, published 2025).

Tests used:
hACSL5 [1] = biological target: T1, hACSL5 (Homo sapiens (Human), UniProt Q9ULC5); test: Human ACSL5 coupled enzyme Amplex Red assay; assay type: biochemical; conditions: read-out: hACSL5 IC50
Protocol: Human ACSL5 (33-683) was cloned with a C-terminal 6 His tag and expressed in insect cells (sf9) as per standard insect cell expression protocols. Human ACSL5 was enriched by affinity nickel affinity chromatography followed by Superdex S200 gel filtration column equilibrated in 20 mM HEPES pH 7.8, 500 mM NaCl, 1 mM TCEP, 5% glycerol, 0.1% Triton X^100.
Inhibition of ACSL5 enzyme activity was monitored with a coupled enzyme Amplex Red assay.
The assay is carried out in 384-well microtiterplates. In a total volume of […], compounds are preincubated with 20 nM ACSL5, in a buffer containing 150 mM MOPS-NaOH, 12 mM MgCl2, 0.03% (v/v) Triton X-100, 2.79 U mL-1 Peroxidase and 24 U mL-1 Acyl-CoA Oxidase (pH 7.6). The reaction is started by the addition of substrate and co factors (25 μM oleate, 30 μM CoA, 1 mM ATP and 50 μM Amplex Red) and the fluorescence detected after 10 minutes at 25° C. with a fluorescence reader (BMG-Fluostar; BMG-Technologies) using an excitation wavelength of 535 nm and an emission wavelength of 590 nm.
(§1) Concentration-response titration points for each compound tested were filled to the Hill equation yielding concentrations of half maximal inhibition […] and maximal inhibition values.
Target sequence in this assay (Q9ULC5 33-683): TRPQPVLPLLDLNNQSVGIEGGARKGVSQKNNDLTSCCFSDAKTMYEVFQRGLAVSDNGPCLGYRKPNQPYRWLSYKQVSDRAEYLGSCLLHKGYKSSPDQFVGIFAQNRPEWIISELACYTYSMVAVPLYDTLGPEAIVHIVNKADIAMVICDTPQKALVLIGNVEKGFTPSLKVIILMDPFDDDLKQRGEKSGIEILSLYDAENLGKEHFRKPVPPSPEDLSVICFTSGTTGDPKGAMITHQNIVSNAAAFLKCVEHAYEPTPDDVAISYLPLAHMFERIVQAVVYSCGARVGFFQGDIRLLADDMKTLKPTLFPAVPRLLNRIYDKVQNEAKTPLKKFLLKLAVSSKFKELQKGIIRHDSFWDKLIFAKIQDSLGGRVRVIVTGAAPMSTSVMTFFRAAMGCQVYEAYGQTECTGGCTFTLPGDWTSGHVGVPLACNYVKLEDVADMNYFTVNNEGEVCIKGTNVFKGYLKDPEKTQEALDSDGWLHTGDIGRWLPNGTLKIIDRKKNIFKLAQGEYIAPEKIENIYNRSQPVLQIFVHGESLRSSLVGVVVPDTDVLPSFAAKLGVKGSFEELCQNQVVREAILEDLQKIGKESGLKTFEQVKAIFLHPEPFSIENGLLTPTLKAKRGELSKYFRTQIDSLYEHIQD

hACSL5 [2] = biological target: T1, hACSL5; test: Cell-based assay (CBA) with B12FA in hACSL5-transfected Expi293F / FlpIn TRex293 cells; conditions: hACSL5-expressing cells
From the text: To assess the cell penetration and cellular activity of the compounds, a cell-based assay (CBA) was used to detect compound potency in living cells. The assay utilized the fluorescent fatty acid analogue B12FA, a boron-dipyrromethene (BODIPY™) labelled C12 fatty acid that can be incorporated into glycerophosphocholine in the cytoplasmic oil droplets of live cells. A concentration-dependent, red-shifted fluorescence can be induced by the formation of BODIPY™ excimers in the oil droplets.
Expi293F cells transfected with full length hACSL5 plasmid were selected using 1 mg/mL G418 culture medium and clones were selected by in vitro whole cell lysate (WCL) assay. The cell passage number used in the Expi293 CBA assay could not be used beyond 10 passages due to a decrease in hACSL5 expression. Therefore, a CBA using FlpIn TRex293 cells for inducible expression of hACSL5 was also established.
FlpIn TRex293 cells transfected with hACSL5 plasmid were selected in culture medium containing 15 µg/ml Blasticidin and 150 µg/ml Hygromycin. For cell-based assays, stable transfected hACSL5 cells were seeded onto a 96-well plate at 30-50k/well and incubated overnight. For the inducible system, […] tetracycline (or doxycycline) was added to culture medium of FlpIn TRex293 hACSL5 cells on the day before the assay to induce expression of hACSL5. The next day, growth media was replaced with culture medium without FBS and glucose (DMEM glucose (-), ThermoFisher) and cells were incubated for an hour before treating cells with serial diluted compounds containing 20 µM B12FA (ThermoFisher) for another 3 hours in the above medium. Cells were then fixed in 4% formaldehyde for 10 minutes and washed twice with PBS. The plate was read using the Cytation 5 imaging system with an excitation wavelength of 485 nm and observed emissions at 630 nm and 520 nm. The percentage of inhibition was calculated as: […]
wherein A is the ratio of emission intensities at 630 nm/520 nm in the absence of inhibitor (maximum ratio); B is the ratio of the intensities at those wavelengths in the presence of […] of the test compound or non-induced cells (minimum ratio); and X is the ratio of the intensities at a given compound concentration.
as §1
Target sequence in this assay (Q9ULC5 whole entry): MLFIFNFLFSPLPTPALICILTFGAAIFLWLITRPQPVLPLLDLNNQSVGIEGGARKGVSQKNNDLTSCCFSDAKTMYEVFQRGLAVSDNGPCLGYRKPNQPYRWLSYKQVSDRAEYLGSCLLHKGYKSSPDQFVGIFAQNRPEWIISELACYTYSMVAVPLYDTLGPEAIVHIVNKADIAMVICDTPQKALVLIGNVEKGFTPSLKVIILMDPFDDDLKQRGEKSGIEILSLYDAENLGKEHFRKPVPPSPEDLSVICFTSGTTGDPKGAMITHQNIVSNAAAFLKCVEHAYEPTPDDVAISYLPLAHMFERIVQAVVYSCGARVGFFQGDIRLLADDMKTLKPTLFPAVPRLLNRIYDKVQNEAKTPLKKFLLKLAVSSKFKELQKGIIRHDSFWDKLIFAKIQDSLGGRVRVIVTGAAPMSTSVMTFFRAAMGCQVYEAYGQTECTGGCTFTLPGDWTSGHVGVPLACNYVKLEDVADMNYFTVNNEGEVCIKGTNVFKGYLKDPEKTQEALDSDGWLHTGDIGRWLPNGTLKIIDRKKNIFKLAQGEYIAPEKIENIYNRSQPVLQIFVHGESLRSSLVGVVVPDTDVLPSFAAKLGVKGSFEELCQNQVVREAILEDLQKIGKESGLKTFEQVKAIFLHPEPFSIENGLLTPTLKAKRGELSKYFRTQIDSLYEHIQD

Compound: CC[C@@H](Oc1ccc(C(=O)NS(=O)(=O)N2CCN(CC(C)(C)F)CC2)c(F)c1F)c1ccc(Oc2ccccn2)cn1 [(R)-2,3-difluoro-N-((4-(2-fluoro-2-methylpropyl)piperazin-1-yl)sulfonyl)-4-(1-(5-(pyridin-2-yloxy)pyridin-2-yl)propoxy)benzamide]
- IC50 (hACSL5 [1]): < 100 nM
- IC50 (hACSL5 [2]): < 100 nM

Compound: CC[C@@H](Oc1ccc(C(=O)NS(=O)(=O)N2CC3(CC(OCCN(C)C)C3)C2)c(F)c1F)c1ccc(OCC2CC2)cn1 [(R)-4-(1-(5-(cyclopropylmethoxy)pyridin-2-yl)propoxy)-N-((6-(2-(dimethylamino)ethoxy)-2-azaspiro[3.3]heptan-2-yl)sulfonyl)-2,3-difluorobenzamide]
- IC50 (hACSL5 [1]): 100 to 500 nM
- IC50 (hACSL5 [2]): > 500 nM

Compound: CC[C@@H](Oc1ccc(C(=O)NS(=O)(=O)c2ccc(OCCN(C)C)cc2)c(F)c1F)c1cc(OCC2CC2)ccn1 [(R)-4-(1-(4-(cyclopropylmethoxy)pyridin-2-yl)propoxy)-N-((4-(2-(dimethylamino)ethoxy)phenyl)sulfonyl)-2,3-difluorobenzamide]
- IC50 (hACSL5 [1]): 100 to 500 nM
- IC50 (hACSL5 [2]): 100 to 500 nM

Compound: CC[C@@H](Oc1ccc(C(=O)NS(=O)(=O)c2ccc(OCCN3CC[C@H](F)C3)cc2)c(F)c1F)c1ccc(OCC2CC2)cn1 [4-((R)-1-(5-(cyclopropylmethoxy)pyridin-2-yl)propoxy)-2,3-difluoro-N-((4-(2-((S)-3-fluoropyrrolidin-1-yl)ethoxy)phenyl)sulfonyl)benzamide]
- IC50 (hACSL5 [1]): < 100 nM
- IC50 (hACSL5 [2]): 100 to 500 nM

Compound: CC[C@@H](Oc1ccc(C(=O)NS(=O)(=O)C2CCN(C)CC2)c(F)c1F)c1ccc(Oc2ccccn2)cn1 [(R)-2,3-difluoro-N-((1-methylpiperidin-4-yl)sulfonyl)-4-(1-(5-(pyridin-2-yloxy)pyridin-2-yl)propoxy)benzamide]
- IC50 (hACSL5 [1]): < 100 nM
- IC50 (hACSL5 [2]): 100 to 500 nM

Compound: CC[C@@H](Oc1ccc(C(=O)NS(=O)(=O)N2CCN(C)CC2)c(F)c1F)c1ccc(OCC2CC2)cn1 [(R)-4-(1-(5-(cyclopropylmethoxy)pyridin-2-yl)propoxy)-2,3-difluoro-N-((4-methylpiperazin-1-yl)sulfonyl)benzamide]
- IC50 (hACSL5 [1]): < 100 nM
- IC50 (hACSL5 [2]): < 100 nM

Compound: CC[C@@H](Oc1ccc(C(=O)NS(=O)(=O)N2CCC(OC3CCN(CC(C)(C)O)CC3)CC2)c(F)c1F)c1ccc(OCC2CC2)cn1 [(R)-4-(1-(5-(cyclopropylmethoxy)pyridin-2-yl)propoxy)-2,3-difluoro-N-((4-((1-(2-hydroxy-2-methylpropyl)piperidin-4-yl)oxy)piperidin-1-yl)sulfonyl)benzamide]
- IC50 (hACSL5 [1]): < 100 nM
- IC50 (hACSL5 [2]): 100 to 500 nM

Compound: CC[C@@H](Oc1ccc(C(=O)NS(=O)(=O)c2ccc(OCCN(C)C)cc2)c(F)c1F)c1ccc(Oc2ccccn2)cn1 [(R)-N-((4-(2-(dimethylamino)ethoxy)phenyl)sulfonyl)-2,3-difluoro-4-(1-(5-(pyridin-2-yloxy)pyridin-2-yl)propoxy)benzamide]
- IC50 (hACSL5 [1]): < 100 nM
- IC50 (hACSL5 [2]): 100 to 500 nM

Compound: CC[C@@H](Oc1ccc(C(=O)NS(=O)(=O)N2CCC(OC3CCN(C)CC3)CC2)c(F)c1F)c1ccc(OCC2CC2)cn1 [(R)-4-(1-(5-(cyclopropylmethoxy)pyridin-2-yl)propoxy)-2,3-difluoro-N-((4-((1-methylpiperidin-4-yl)oxy)piperidin-1-yl)sulfonyl)benzamide]
- IC50 (hACSL5 [1]): < 100 nM
- IC50 (hACSL5 [2]): 100 to 500 nM

Compound: CC[C@@H](Oc1ccc(C(=O)NS(=O)(=O)c2ccc(OCC[C@H]3CCCCN3C)cc2)c(F)c1F)c1ccc(OCC2CC2)cn1 [4-((R)-1-(5-(cyclopropylmethoxy)pyridin-2-yl)propoxy)-2,3-difluoro-N-((4-(2-((R)-1-methylpiperidin-2-yl)ethoxy)phenyl)sulfonyl)benzamide]
- IC50 (hACSL5 [1]): < 100 nM
- IC50 (hACSL5 [2]): 100 to 500 nM

Compound: CC[C@@H](Oc1ccc(C(=O)NS(=O)(=O)N2CCN(C3CCC3)CC2)c(F)c1F)c1ccc(OCC2CC2)cn1 [(R)-N-((4-cyclobutylpiperazin-1-yl)sulfonyl)-4-(1-(5-(cyclopropylmethoxy)pyridin-2-yl)propoxy)-2,3-difluorobenzamide]
- IC50 (hACSL5 [1]): < 100 nM
- IC50 (hACSL5 [2]): < 100 nM
